Test results taken from PubChem BioAssay (NCI).
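1) Cells in 96-well plates. 2) Compound, 48 h, 5 concentrations. 3) Linear interpolation between surrounding doses. 4) Unreached endpoint = highest concentration. Abbreviation: GI50, concentration required for 50% inhibition of growth. The concentration for full growth arrest is given as TGI.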

Columns and labels:
Experiment in all cases: NCI tumour cell line growth inhibition, 48 h
KM12 colon = test system: KM12 colon
DU-145 prostate = test system: DU-145 prostate
CCRF-CEM leukemia = test system: CCRF-CEM leukemia
HOP-92 NSCLC = test system: HOP-92 NSCLC
MDA-MB-231 breast = test system: MDA-MB-231 breast
SR leukemia = test system: SR leukemia
HS 578T breast = test system: HS 578T breast
NCI-H226 lung = test system: NCI-H226 lung
SF-295 CNS = test system: SF-295 CNS
SK-MEL-28 melanoma = test system: SK-MEL-28 melanoma
COLO 205 colon = test system: COLO 205 colon
NCI-H522 lung = test system: NCI-H522 lung
A498 renal = test system: A498 renal
MALME-3M melanoma = test system: MALME-3M melanoma
MDA-MB-435 = test system: MDA-MB-435
PC-3 prostate = test system: PC-3 prostate
HCT-15 colon = test system: HCT-15 colon
T-47D breast = test system: T-47D breast
EKVX NSCLC = test system: EKVX NSCLC
TK-10 renal = test system: TK-10 renal
RXF 393 renal = test system: RXF 393 renal
A549 NSCLC = test system: A549 NSCLC
UACC-62 melanoma = test system: UACC-62 melanoma
OVCAR-5 ovarian = test system: OVCAR-5 ovarian
SF-268 CNS = test system: SF-268 CNS
NCI-H460 lung = test system: NCI-H460 lung
IGROV1 ovarian = test system: IGROV1 ovarian
HCT-116 colon = test system: HCT-116 colon
RPMI-8226 leukemia = test system: RPMI-8226 leukemia
UACC-257 melanoma = test system: UACC-257 melanoma
CAKI-1 renal = test system: CAKI-1 renal
HT29 colon = test system: HT29 colon
K-562 leukemia = test system: K-562 leukemia
UO-31 renal = test system: UO-31 renal
SNB-75 CNS = test system: SNB-75 CNS
OVCAR-3 ovarian = test system: OVCAR-3 ovarian
SF-539 CNS = test system: SF-539 CNS
OVCAR-4 ovarian = test system: OVCAR-4 ovarian
SNB-19 CNS = test system: SNB-19 CNS
BT-549 breast = test system: BT-549 breast
HOP-62 NSCLC = test system: HOP-62 NSCLC
HL-60(TB) leukemia = test system: HL-60(TB) leukemia
SK-OV-3 ovarian = test system: SK-OV-3 ovarian
SW-620 colon = test system: SW-620 colon
M14 melanoma = test system: M14 melanoma
MCF7 breast = test system: MCF7 breast
ACHN renal = test system: ACHN renal
786-0 renal = test system: 786-0 renal
SN12C renal = test system: SN12C renal
MOLT-4 leukemia = test system: MOLT-4 leukemia
HCC-2998 colon = test system: HCC-2998 colon
SK-MEL-5 melanoma = test system: SK-MEL-5 melanoma
NCI/ADR-RES ovarian = test system: NCI/ADR-RES ovarian
SK-MEL-2 melanoma = test system: SK-MEL-2 melanoma
U251 CNS = test system: U251 CNS

## COC(=O)c1cccc(NC2=C(Cl)C(=O)c3nc(C)ccc3C2=O)c1
KM12 colon
  GI50: 13.3 µM
  TGI: 29.4 µM
DU-145 prostate
  GI50: 1.86 µM
  TGI: 3.39 µM
CCRF-CEM leukemia
  GI50: 2.01 µM
  TGI: 5.48 µM
HOP-92 NSCLC
  GI50: 1.92 µM
  TGI: 3.95 µM
MDA-MB-231 breast
  GI50: 2.15 µM
  TGI: 5.08 µM
SR leukemia
  GI50: 1.83 µM
  TGI: 4.62 µM
HS 578T breast
  GI50: 2.46 µM
  TGI: 6.26 µM
NCI-H226 lung
  GI50: 2.02 µM
  TGI: 4.39 µM
SF-295 CNS
  GI50: 15.8 µM
  TGI: 29.9 µM
SK-MEL-28 melanoma
  GI50: 1.96 µM
  TGI: 3.71 µM
COLO 205 colon
  GI50: 1.77 µM
  TGI: 3.76 µM
NCI-H522 lung
  GI50: 1.89 µM
  TGI: 4.46 µM
A498 renal
  GI50: 12 µM
  TGI: 24.6 µM
MALME-3M melanoma
  GI50: 1.95 µM
  TGI: 3.76 µM
MDA-MB-435
  GI50: 2.04 µM
  TGI: 4.29 µM
PC-3 prostate
  GI50: 2.8 µM
  TGI: 10.3 µM
HCT-15 colon
  GI50: 1.54 µM
  TGI: 3.33 µM
T-47D breast
  GI50: 2.04 µM
  TGI: 5.02 µM
EKVX NSCLC
  GI50: 1.77 µM
  TGI: 3.6 µM
TK-10 renal
  GI50: 1.78 µM
  TGI: 3.19 µM
RXF 393 renal
  GI50: 1.57 µM
  TGI: 2.94 µM
A549 NSCLC
  GI50: 18.1 µM
  TGI: 37.9 µM
UACC-62 melanoma
  GI50: 2.62 µM
  TGI: 8.1 µM
OVCAR-5 ovarian
  GI50: 3.14 µM
  TGI: 14.7 µM
SF-268 CNS
  GI50: 2.76 µM
  TGI: 9.59 µM
NCI-H460 lung
  GI50: 18.5 µM
  TGI: 41.5 µM
IGROV1 ovarian
  GI50: 1.98 µM
  TGI: 3.89 µM
HCT-116 colon
  GI50: 1.6 µM
  TGI: 3.32 µM
RPMI-8226 leukemia
  GI50: 2.14 µM
  TGI: 6 µM
UACC-257 melanoma
  GI50: 1.57 µM
  TGI: 3 µM
CAKI-1 renal
  GI50: 1.71 µM
  TGI: 3.28 µM
HT29 colon
  GI50: 2.32 µM
  TGI: 6.09 µM
K-562 leukemia
  GI50: 0.976 µM
  TGI: 3.94 µM
UO-31 renal
  GI50: 1.44 µM
  TGI: 2.79 µM
SNB-75 CNS
  GI50: 13.2 µM
  TGI: 26.2 µM
OVCAR-3 ovarian
  GI50: 1.59 µM
  TGI: 3.03 µM
SF-539 CNS
  GI50: 1.75 µM
  TGI: 3.27 µM
OVCAR-4 ovarian
  GI50: 1.42 µM
  TGI: 2.89 µM
SNB-19 CNS
  GI50: 10.8 µM
  TGI: > 100 µM
BT-549 breast
  GI50: 1.68 µM
  TGI: 3.09 µM
HOP-62 NSCLC
  GI50: 15.1 µM
  TGI: 29.6 µM
HL-60(TB) leukemia
  GI50: 1.53 µM
  TGI: 3.64 µM
SK-OV-3 ovarian
  GI50: 12.5 µM
  TGI: 25.2 µM
SW-620 colon
  GI50: 1.97 µM
  TGI: 4.03 µM
M14 melanoma
  GI50: 1.84 µM
  TGI: 3.42 µM
MCF7 breast
  GI50: 1.89 µM
  TGI: 4.61 µM
ACHN renal
  GI50: 1.78 µM
  TGI: 3.4 µM
786-0 renal
  GI50: 1.86 µM
  TGI: 3.66 µM
SN12C renal
  GI50: 2.13 µM
  TGI: 5.4 µM
MOLT-4 leukemia
  GI50: 2.53 µM
  TGI: 5.68 µM
HCC-2998 colon
  GI50: 2.21 µM
  TGI: 4.8 µM
SK-MEL-5 melanoma
  GI50: 1.8 µM
  TGI: 3.34 µM
NCI/ADR-RES ovarian
  GI50: 2.25 µM
  TGI: 6.28 µM
SK-MEL-2 melanoma
  GI50: 2.27 µM
  TGI: 6.48 µM
U251 CNS
  GI50: 3.27 µM
  TGI: 11.8 µM
